In patent US20240299560A1, “DEOXYCHOLIC ACID-PEPTIDE CONJUGATE HAVING ANTI-OBESITY ACTIVITY AND USE THEREOF” (CAREGEN CO, LTD., priority 2020, published 2024):
Where a SMILES comes first, the peptide text is derived from it. [ ]: non-standard residue; d: D form. The star is where a group is joined. ξ: configuration not given here. Deoxycholoyl = C[C@H](CCC(=O)*)[C@H]1CC[C@H]2[C@@H]3CC[C@@H]4C[C@H](O)CC[C@]4(C)[C@H]3C[C@H](O)[C@]12C; ξF = NC(Cc1ccccc1)C(=O)O; ξL = CC(C)CC(N)C(=O)O; ξK = NCCCCC(N)C(=O)O; ξNva = CCCC(N)C(=O)O

Experiments:
[1] = Solubility in water, visual observation; assay type: physicochemical; details: 1 mg in 90 μL distilled water
Method: Solubilities of the deoxycholic acid-peptide conjugate prepared in Example 2 and deoxycholic acid were visually observed and compared.
Specifically, 90 μL of distilled water was added to an E. tube containing 1 mg each of the deoxycholic acid-peptide conjugate and the deoxycholic acid, and dissolution was confirmed.

white adipose tissue = assay: Glycerol release (lipolysis) from cultured adipose tissue; assay type: cell-based, mice; details: for glycerol release amount: 1 μM, adipose tissue
Method: Neutral fat stored in adipose tissue was decomposed into fatty acids and glycerol for energy production or cell signaling. Therefore, the lipolysis effect of neutral fat accumulated in the adipose tissue was confirmed by measuring the release amount of free glycerol.
Specifically, in female mice fed with a high-fat diet (Rodent Diet with 60% Kcal Fat, Research Diets, USA), a fat pad, which was white adipose tissue, was isolated, and each 400 mg of adipose tissue per well was placed in a 12-well plate, and then cultured for 48 hours in a culture medium (DMEM media serum free) to be stabilized. During the culture, the peptide conjugate was treated at concentrations of 1 μM, 10 μM, and 100 μM, and as a positive control group, 20 nM of TNFα was treated and cultured for 48 hours to obtain a supernatant, and the amount of glycerol was measured using a glycerol colorimetric assay kit (Cayman chemical, USA).
(§1) In order to compare the lipolysis effects in the case of treating the deoxycholic acid-peptide conjugate and the case of treating the deoxycholic acid or the peptide of SEQ ID NO: 1 alone, the amount of glycerol released from the adipose tissue was measured in the same manner as in Experimental Example 3-1. A group treated with TNF-α was used as a positive control group.

3T3-L1 cells = assay: Oil red O staining of fat accumulation in differentiated adipocytes; assay type: cell-based; details: 1 μM, 3T3-L1 adipocytes; for lipid accumulation amount: oil red O absorbance 510 nm
Method: 3T3-L1 cells as preadipocytes were purchased from the American Type Culture Collection (ATCC) and used in an experiment. 3T3-L1 was a cell line widely used to study the metabolic process of adipocytes, and as the differentiation of the cells was activated, fat accumulation in adipocytes was activated to induce obesity.
(§2) The preadipocytes 3T3-L1 were cultured in a DMEM containing 2% fetal bovine serum (FBS) under conditions of 37° C. and 5% CO2. The preadipocytes 3T3-L1 were dispensed in a 12-well plate at a density of 1×10^5 cells/well, and then further maintained for 2 days at a 100% confluency point. The preadipocytes were cultured for 2 days in a DMEM medium (hereinafter referred to as a ‘differentiation medium’) containing a differentiation ingredient (including 10 μg/ml insulin, 0.1 μM dexamethasone and 0.5 mM IBMX) and 10% FBS to induce the differentiation into adipocytes. After 48 hours of culture, the preadipocytes were cultured for 2 days in 10% FBS DMEM (hereinafter referred to as a ‘culture medium’) containing 1 μg/ml insulin. Thereafter, the culture medium was replaced with a 10% FBS DMEM culture medium every 2 days. During the induction of adipocytes differentiation, depending on a purpose of the experiment, a deoxycholic acid-peptide conjugate was treated or not in each culture medium at a concentration of 1 μM or 10 μM, and the differentiation degree of adipocytes was observed on day 7, when the differentiation was completed.
Specifically, the degree of differentiation of adipocytes induced in Preparation Example 1 was first confirmed under a microscope through oil red O staining, and for the staining degree of adipocytes, the degree of fat accumulated in the cells was calculated by measuring absorbance with a spectrophotometer at a wavelength of 510 nm. A group treated with a β3 adrenergic receptor agonist CL316243 or TNF-α was used as a positive control group.
as §1, with “fat accumulation inhibitory” for “lipolysis”, “degree” for “amount”, “differentiation of adipocytes and” for “glycerol released from”, “degree of lipid accumulation were” for “adipose tissue was”, “1-1.” for “3-1.”

[2] = tested on: adiponectin and leptin genes; assay: RT-PCR of fat metabolism genes in adipocytes; assay type: cell-based; details: 1 and 10 μM, 1, 3, 6 hours
Method: as §2, with “completed. […]” for “completed.”

HSL and PLIN genes = assay: RT-PCR of lipolysis genes in adipose tissue; assay type: cell-based, BL/6 mice; details: 1 and 10 μM, 72 hours
Method: (§3) Adipose tissue was collected from the abdomen of 9-week-old BL/6 mice, placed in a 100 mm×15 mm culture dish, and then cultured in a culture medium overnight. The adipose tissue was divided to have the same weight, transferred to a 24-well plate, and then used in the following Experimental Examples.
(§4) The adipocytes obtained in Preparation Example 1 or the adipose tissue obtained in Preparation Example 2 were treated with the deoxycholic acid-peptide conjugate of the present invention, cultured, and then recovered, and RNA was extracted with Trizol (Thermo Fisher Scientific, USA). From the extracted RNA, complementary DNA to RNA was obtained using TOPScript™ RT DryMIX (enzynomics, Korea) and then polymerase chain reaction (PCR) was performed using TOPsimple™ DryMIX-nTaq (enzynomics, Korea). Thereafter, PCR products were loaded on a 1.5% agarose gel to compare the mRNA expression levels of the growth factors.
Specifically, the adipose tissue obtained in Preparation Example 2 was treated with 1 μM and 10 μM of the deoxycholic acid-peptide conjugate and 1 μM of CL316243 (Sigma, USA) as a positive control group and cultured for 72 hours. […]

AMPKa1, HSL, PGC1a genes = assay: RT-PCR of lipolysis-related genes in adipocytes; assay type: cell-based; details: 1 and 10 μM; 24 hours; differentiated adipocytes
Method: as §2, §4
Specifically, the differentiated adipocytes obtained in Preparation Example 1 were treated with 1 μM and 10 μM of the deoxycholic acid-peptide conjugate, and then cultured for 24 hours. […]

adipose tissue = assay: H&E staining, size of adipocytes in adipose tissue; assay type: cell-based, BL/6 mice; details: vs control group
Method: as §3
In order to confirm the lipolysis effect in adipose tissue by the deoxycholic acid-peptide conjugate, H&E staining was performed on the adipose tissue obtained in Preparation Example 2 to confirm the sizes of adipocytes.
Specifically, the adipose tissue was cut, attached to a paraffin slide, and dried at 50° C. The slide attached with the dried adipose tissue was placed in Xylene 1, 2, and 3 for 5 minutes each, and the paraffin was removed. Thereafter, the slide was put into 100% ethanol for 2 minutes, and then sequentially put into 90%, 80%, and 70% ethanol to be re-hydrated. The re-hydrated slide was stained in a hematoxylin solution, washed, and then stained with Eosin Y. Thereafter, the slide was sequentially put into 90%, 80%, and 70% ethanol, and then put into Xylene 3, 2, and 1, and then mounted with a xylene-based mounting medium to prevent air bubbles from entering the tissue, and then dried. Then, the dried slide was observed under an optical microscope.

[3] = tested on: UCP1, PRDM and Cidea genes; assay: RT-PCR of thermogenesis-related genes of brown adipocytes in adipose tissue; assay type: cell-based, BL/6 mice; details: 1 and 10 μM, 72 hours
Method: as §3, §4
(§5) Specifically, the adipose tissue obtained in Preparation Example 2 was treated with 1 μM and 10 μM of the deoxycholic acid-peptide conjugate and 1 μM of CL316,243 (Sigma, USA) as a positive control group and further cultured for 72 hours. After the cells were recovered and the polymerase chain reaction was performed by the method described in Experimental Example 4-1, the expression products were loaded on an agarose gel to confirm the mRNA expression levels of genes related to adipogenesis.

[4] = tested on: ACCα, FAS and PPARγ genes; assay: RT-PCR of adipogenesis genes in adipose tissue; assay type: cell-based, BL/6 mice; details: 1 and 10 μM, 72 hours
Method: as §3, §4, §5

[5] = tested on: IL-15 gene in C2C12 cells; assay: RT-PCR of IL-15 gene in muscle cells; assay type: cell-based, mouse; details: 1 and 10 μM; 6 hours; C2C12 myotubes
Method: as §4
Specifically, C2C12 cells, which were mouse myoblasts, were inoculated into a 6-well plate at a density of 2×10^5 cells/well, and then cultured in a DMEM (10% FBS) medium for 3 days. When the cells had grown to about 70 to 80% of the plate, the medium was replaced with a differentiation medium (DMEM, 5% horse serum) and then cultured for 3 days. Thereafter, the medium was replaced with the differentiation medium (DMEM, 2% horse serum) and cultured for 4 days to induce differentiation from myoblasts to myotubes. Then, the medium was replaced with a serum-free medium and cultured for 2 hours, and treated with 1 μM and 10 μM of the deoxycholic acid-peptide conjugate for 6 hours and cultured in an environment of 37° C. and 5% CO2. […]

Row | Compound | solubility in water (dissolution, visual) [1] | glycerol release amount (white adipose tissue) | lipid accumulation amount (3T3-L1 cells) | adiponectin mRNA expression [2] | leptin mRNA expression [2] | HSL mRNA expression (HSL and PLIN genes) | PLIN mRNA expression (HSL and PLIN genes) | AMPKa1 mRNA expression (AMPKa1, HSL, PGC1a genes) | HSL mRNA expression (AMPKa1, HSL, PGC1a genes) | PGC1a mRNA expression (AMPKa1, HSL, PGC1a genes) | amount of glycerol released (white adipose tissue; 1, 10, 100 μM, 48 hours, adipose tissue of high-fat diet mice, vs control group) | sizes of adipocytes (adipose tissue) | Cidea mRNA expression [3] | PRDM mRNA expression [3] | UCP1 mRNA expression [3] | fat staining in adipocytes (oil red O) (3T3-L1 cells; day 7, positive control CL316243 or TNF-α) | ACCα mRNA expression [4] | FAS mRNA expression [4] | PPARγ mRNA expression [4] | IL-15 mRNA expression [5]
1 | C[C@H](CCC(=O)O)[C@H]1CC[C@H]2[C@@H]3CC[C@@H]4C[C@H](O)CC[C@]4(C)[C@H]3C[C@H](O)[C@]12C [deoxycholic acid, 3,12-dihydroxycholan-24-oic acid] | hardly dissolved | 116% | 93% |  |  |  |  |  |  |  |  |  |  |  |  |  |  |  |  | 
2 | CCCC(NC(=O)C(CC(C)C)NC(=O)C(Cc1ccccc1)NC(=O)C(CCCCN)NC(=O)CC[C@@H](C)[C@H]1CC[C@H]2[C@@H]3CC[C@@H]4C[C@H](O)CC[C@]4(C)[C@H]3C[C@H](O)[C@]12C)C(=O)NC(CCCCN)C(=O)O (stereo partly shown) [deoxycholic acid-peptide conjugate] (Deoxycholoyl-[ξK][ξF][ξL][ξNva][ξK]-OH) | completely dissolved | 175% | 78% | increased | increased | increased in a concentration dependent manner | increased in a concentration dependent manner | increased | increased | increased | increased in a concentration-dependent manner | decreased | increased | increased | increased | reduced at the same level as the positive control group | decreased | decreased | decreased | increased
3 | Lys Phe Leu Ile Lys (KFLIK) [peptide of SEQ ID NO: 1] |  | 106% | 89% |  |  |  |  |  |  |  |  |  |  |  |  |  |  |  |  | 
